According to patent publication US9655887B2, “Pharmaceutical composition and the use thereof, and application regime of said pharmaceutical composition for on-demand contraception” (BAYER PHARMA AKTIENGESELLSCHAFT, priority 2013, dated 2017):

Biological target: EP2 subtype of the human PGE2 receptor (hEP2 receptor) (Homo sapiens, UniProt P43116)
Assay: cAMP antagonism test, human prostaglandin E2 (subtype EP2) receptor signal
Type: cell-based
Excerpt: 1. Detection of Antagonism to the Human Prostaglandin E2 (Subtype EP2) Receptor Signal
The binding of PGE2 to the EP2 subtype of the human PGE2 receptor induces the activation of membrane-located adenylate cyclases and leads to the formation of cAMP. In the presence of the phosphodiesterase inhibitor IBMX, the cAMP accumulated owing to this stimulation and released by cell lysis is used in a competitive detection method. In this test, the cAMP present in the lysate competes with a fluorescence-labelled cAMP (cAMP-d2) for binding to an Eu cryptate-labelled anti-cAMP antibody.
In the absence of cellular cAMP, a maximal signal is produced, which is attributable to the binding of this cAMP-d2 molecule to the antibody. After excitation of the […] at 337 nm, there is a fluorescence resonance energy transfer (FRET) to the Eu cryptate molecules of the anti-cAMP antibody (labelled therewith), followed by a long-lasting emission signal at 665 nm (and at […]). Both signals are measured in a suitable measurement instrument with a time delay, i.e. after decay of the background fluorescence. Any increase in the low FRET signal caused by prostaglandin E2 administration (measured as well ratio change=emission665nm/emission620nm*10000) indicates the action of antagonists.
1.2.1. Test for Antagonism (Data Per Well of a 384-Well Plate):
To a test plate with the substance solutions already added (0.05 μl; 100% DMSO, concentration range from 0.8 nM-16.5 nM) were added 4 μl of a cAMP-d2/cell suspension (625000 cells/ml). After a 20-minute preincubation at room temperature (RT), 2 μl of a 3×PGE2 solution (1.5 nM, in PBS-IBMX) were added and incubated in the presence of the agonist for a further 60 mins at RT (volume: […]). Next the reaction was stopped by addition of 2 μl of lysis buffer and incubated for a further 20 mins at RT before the actual measurement (volume: ˜8 μl).

EP2 subtype of the human PGE2 receptor (hEP2 receptor), sequence (P43116 whole entry): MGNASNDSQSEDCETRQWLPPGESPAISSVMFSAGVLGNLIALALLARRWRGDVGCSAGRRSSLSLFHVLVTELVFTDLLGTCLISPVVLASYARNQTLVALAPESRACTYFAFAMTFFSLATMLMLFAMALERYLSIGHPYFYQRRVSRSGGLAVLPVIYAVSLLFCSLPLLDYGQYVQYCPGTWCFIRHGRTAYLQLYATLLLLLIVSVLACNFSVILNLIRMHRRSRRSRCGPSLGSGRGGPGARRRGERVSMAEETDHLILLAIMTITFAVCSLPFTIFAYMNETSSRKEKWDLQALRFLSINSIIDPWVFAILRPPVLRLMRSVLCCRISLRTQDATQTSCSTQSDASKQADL

IC50, > 50 nM:
Cc1c(C(=O)NCCOCC2CC2)ccc2nn(CC3CCN(C(=O)c4ccc(Oc5ccc(F)cc5)cc4)CC3)cc12 [Example E61, N-[2-(cyclopropylmethoxy)ethyl]-2-({1-[4-(4-fluorophenoxy)benzoyl]piperidin-4-yl}-methyl)-4-methyl-2H-indazole-5-carboxamide]
Cc1c(C(=O)NCCOCC2CC2)ccc2nn(CC3CCN(C(=O)c4ccc(C(F)(F)F)cc4)CC3)cc12 [Example E62, N-[2-(cyclopropylmethoxy)ethyl]-4-methyl-2-({1-[4-(trifluoromethyl)benzoyl]piperidin-4-yl}methyl)-2H-indazole-5-carboxamide]
Cc1c(C(=O)NCCOCC2CC2)ccc2nn(CC3CCN(C(=O)c4ccc(-c5ccc(F)cc5)cc4)CC3)cc12 [Example E63, N-[2-(cyclopropylmethoxy)ethyl]-2-({1-[(4′-fluorobiphenyl-4-yl)carbonyl]piperidin-4-yl}methyl)-4-methyl-2H-indazole-5-carboxamide]
Cc1c(C(=O)NCCOCC2CC2)ccc2nn(CC3CCN(C(=O)c4ccc(C5CC5)cc4)CC3)cc12 [Example E64, 2-{[1-(4-cyclopropylbenzoyl)piperidin-4-yl]methyl}-N-[2-(cyclopropylmethoxy)ethyl]-4-methyl-2H-indazole-5-carboxamide]
Cc1c(C(=O)NCCOCC(F)(F)F)ccc2nn(CC3CCN(C(=O)c4ccc(Cl)cc4)CC3)cc12 [Example E65, 2-{[1-(4-chlorobenzoyl)piperidin-4-yl]methyl}-4-methyl-N-[2-(2,2,2-trifluoroethoxy)-ethyl]-2H-indazole-5-carboxamide]
Cc1ccc(C(=O)N2CCC(Cn3cc4c(C)c(C(=O)NCCOCC(F)(F)F)ccc4n3)CC2)cc1 [Example E66, 4-methyl-2-{[1-(4-methylbenzoyl)piperidin-4-yl]methyl}-N-[2-(2,2,2-trifluoroethoxy)-ethyl]-2H-indazole-5-carboxamide]
Cc1c(C(=O)NCCOCC(F)(F)F)ccc2nn(CC3CCN(C(=O)c4ccc(Oc5ccc(F)cc5)cc4)CC3)cc12 [Example E67]
Cc1c(C(=O)NCCOCC(F)(F)F)ccc2nn(CC3CCN(C(=O)c4ccc(C(F)(F)F)cc4)CC3)cc12 [Example E68, 4-methyl-N-[2-(2,2,2-trifluoroethoxy)ethyl]-2-({1-[4-(trifluoromethyl)benzoyl]-piperidin-4-yl}methyl)-2H-indazole-5-carboxamide]
Cc1c(C(=O)NCCOCC(F)(F)F)ccc2nn(CC3CCN(C(=O)c4ccc(-c5ccc(F)cc5)cc4)CC3)cc12 [Example E69, 2-({1-[(4′-fluorobiphenyl-4-yl)carbonyl]piperidin-4-yl}methyl)-4-methyl-N-[2-(2,2,2-trifluoroethoxy)ethyl]-2H-indazole-5-carboxamide]
Cc1c(C(=O)NCCOCC(F)(F)F)ccc2nn(CC3CCN(C(=O)c4ccc(C5CC5)cc4)CC3)cc12 [Example E70, 2-{[1-(4-cyclopropylbenzoyl)piperidin-4-yl]methyl}-4-methyl-N-[2-(2,2,2-trifluoro-ethoxy)ethyl]-2H-indazole-5-carboxamide]
Cc1c(C(=O)NCCOC(C)C)ccc2nn(CC3CCN(C(=O)c4ccc(Cl)cc4)CC3)cc12 [Example E71, 2-{[1-(4-chlorobenzoyl)piperidin-4-yl]methyl}-N-(2-isopropoxyethyl)-4-methyl-2H-indazole-5-carboxamide]
Cc1ccc(C(=O)N2CCC(Cn3cc4c(C)c(C(=O)NCCOC(C)C)ccc4n3)CC2)cc1 [Example E72, N-(2-isopropoxyethyl)-4-methyl-2-{[1-(4-methylbenzoyl)piperidin-4-yl]methyl}-2H-indazole-5-carboxamide]
Cc1c(C(=O)NCCOC(C)C)ccc2nn(CC3CCN(C(=O)c4ccc(Oc5ccc(F)cc5)cc4)CC3)cc12 [Example E73, 2-({1-[4-(4-fluorophenoxy)benzoyl]piperidin-4-yl}methyl)-N-(2-isopropoxyethyl)-4-methyl-2H-indazole-5-carboxamide]
Cc1c(C(=O)NCCOC(C)C)ccc2nn(CC3CCN(C(=O)c4ccc(C(F)(F)F)cc4)CC3)cc12 [Example E74, N-(2-isopropoxyethyl)-4-methyl-2-({1-[4-(trifluoromethyl)benzoyl]piperidin-4-yl}-methyl)-2H-indazole-5-carboxamide]
Cc1c(C(=O)NCCOC(C)C)ccc2nn(CC3CCN(C(=O)c4ccc(-c5ccc(F)cc5)cc4)CC3)cc12 [Example E75, 2-({1-[(4′-fluorobiphenyl-4-yl)carbonyl]piperidin-4-yl}methyl)-N-(2-isopropoxyethyl)-4-methyl-2H-indazole-5-carboxamide]
Cc1c(C(=O)NCCOC(C)C)ccc2nn(CC3CCN(C(=O)c4ccc(C5CC5)cc4)CC3)cc12 [Example E76, 2-{[1-(4-cyclopropylbenzoyl)piperidin-4-yl]methyl}-N-(2-isopropoxyethyl)-4-methyl-2H-indazole-5-carboxamide]
Cc1c(C(=O)NCCOC(F)(F)F)ccc2nn(CC3CCN(C(=O)c4ccc(Cl)cc4)CC3)cc12 [Example E77, 2-{[1-(4-chlorobenzoyl)piperidin-4-yl]methyl}-4-methyl-N-[2-(trifluoromethoxy)ethyl]-2H-indazole-5-carboxamide]
Cc1c(C(=O)NCCOC(F)(F)F)ccc2nn(CC3CCN(C(=O)c4ccc(Oc5ccc(F)cc5)cc4)CC3)cc12 [Example E78, 2-({1-[4-(4-fluorophenoxy)benzoyl]piperidin-4-yl}methyl)-4-methyl-N-[2-(trifluoro-methoxy)ethyl]-2H-indazole-5-carboxamide]
Cc1c(C(=O)NCCOC(F)(F)F)ccc2nn(CC3CCN(C(=O)c4ccc(-c5ccc(F)cc5)cc4)CC3)cc12 [Example E79, 2-({1-[(4′-fluorobiphenyl-4-yl)carbonyl]piperidin-4-yl}methyl)-4-methyl-N-[2-(trifluoromethoxy)ethyl]-2H-indazole-5-carboxamide]
Cc1c(C(=O)NCCOC(F)(F)F)ccc2nn(CC3CCN(C(=O)c4ccc(Oc5ccc(C(F)(F)F)cc5)cc4)CC3)cc12 [Example E80, 4-methyl-N-[2-(trifluoromethoxy)ethyl]-2-[(1-{4-[4-(trifluoromethyl)phenoxy]-benzoyl}piperidin-4-yl)methyl]-2H-indazole-5-carboxamide]
Cc1c(C(=O)NCCOC(C)(C)C)ccc2nn(CC3CCN(C(=O)c4ccc(Cl)cc4)CC3)cc12 [Example E81, N-(2-tert-butoxyethyl)-2-{[1-(4-chlorobenzoyl)piperidin-4-yl]methyl}-4-methyl-2H-indazole-5-carboxamide]
Cc1c(C(=O)NCCOC(C)(C)C)ccc2nn(CC3CCN(C(=O)c4ccc(Oc5ccc(F)cc5)cc4)CC3)cc12 [Example E82, N-(2-tert-butoxyethyl)-2-({1-[4-(4-fluorophenoxy)benzoyl]piperidin-4-yl}methyl)-4-methyl-2H-indazole-5-carboxamide]
Cc1c(C(=O)NCCOC(C)(C)C)ccc2nn(CC3CCN(C(=O)c4ccc(-c5ccc(F)cc5)cc4)CC3)cc12 [Example E83, N-(2-tert-butoxyethyl)-2-({1-[(4′-fluorobiphenyl-4-yl)carbonyl]piperidin-4-yl}methyl)-4-methyl-2H-indazole-5-carboxamide]
Cc1c(C(=O)NCCOC(C)(C)C)ccc2nn(CC3CCN(C(=O)c4ccc(Oc5ccc(C(F)(F)F)cc5)cc4)CC3)cc12 [Example E84, N-(2-tert-butoxyethyl)-4-methyl-2-[(1-{4-[4-(trifluoromethyl)phenoxy]benzoyl}-piperidin-4-yl)methyl]-2H-indazole-5-carboxamide]
[2H]C([2H])([2H])OC([2H])([2H])C([2H])([2H])NC(=O)c1ccc2nn(CC3CCN(C(=O)c4ccc(Cl)cc4)CC3)cc2c1C [Example E85, 2-{[1-(4-chlorobenzoyl)piperidin-4-yl]methyl}-4-methyl-N-{2-[(^2H3)methyloxy]-(^2H4)ethyl}-2H-indazole-5-carboxamide]
[2H]C([2H])([2H])OC([2H])([2H])C([2H])([2H])NC(=O)c1ccc2nn(CC3CCN(C(=O)c4ccc(Oc5ccc(F)cc5)cc4)CC3)cc2c1C [Example E86, 2-({1-[4-(4-fluorophenoxy)benzoyl]piperidin-4-yl}methyl)-4-methyl-N-{2-[(^2H3)methyloxy](^2H4)ethyl}-2H-indazole-5-carboxamide]
COCCNC(=O)c1ccc2nn(CC3CN(C(=O)c4ccc(Cl)cc4)C3)cc2c1C [Example E87, 2-{[1-(4-chlorobenzoyl)azetidin-3-yl]methyl}-N-(2-methoxyethyl)-4-methyl-2H-indazole-5-carboxamide]
